In the first assay the target is T1, Jak3 (Homo sapiens, UniProt P52333).
T1 construct: Jak3 enzyme (aa 811-1103); expressed in SF9 cells as a GST fusion; GST; made in house; host or cells: SF9 insect cells
T1 sequence (P52333 811-1103): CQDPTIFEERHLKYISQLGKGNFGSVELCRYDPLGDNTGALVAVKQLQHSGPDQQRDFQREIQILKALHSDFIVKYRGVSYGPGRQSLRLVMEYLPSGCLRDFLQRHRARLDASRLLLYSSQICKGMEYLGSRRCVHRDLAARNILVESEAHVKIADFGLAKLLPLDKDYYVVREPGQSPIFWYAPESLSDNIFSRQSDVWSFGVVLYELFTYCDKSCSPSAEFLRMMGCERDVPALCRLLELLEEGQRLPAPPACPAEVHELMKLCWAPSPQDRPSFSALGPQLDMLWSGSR
Briefly: In vitro Jak3 kinase activity measured by trFRET. The assay is classed as biochemical. The note with it: Jak3 enzyme aa 811-1103, 0.001 mM ATP. An excerpt: In Vitro Jak3 Kinase Activity Measured by Time-Resolved Fluorescence Resonance Energy Transfer (trFRET)
What is called IC50 is the point on the concentration scale where inhibition reaches its midpoint. A lower IC50 goes with inhibition by little substance. The compound `N#CC1(C(=O)N2CCC[C@H](c3nnn4cnc5[nH]ccc5c34)C2)CC1` (single isomer, unassigned) [compound 5] had an IC50 of 1 to 10 µM.

On to `CC(C)c1nc(C2CCCN(C(=O)OCc3ccccc3)C2)c2c3cc[nH]c3ncn12` (stereo not shown) [Example #3, Benzyl 3-(3-isopropyl-7H-imidazo[1,5-c]pyrrolo[3,2-e]pyrimidin-1-yl)piperidine-1-carboxylate], for which the concentration for half-maximal inhibition (IC50) was 1 to 10 µM.

Take `N#CC1(C(=O)N2CCC[C@@H](c3nnn4cnc5[nH]ccc5c34)C2)CC1` (single isomer, unassigned) [compound 6]: the IC50 was 0.1 to 1 µM.

Compound `O=C(OCc1ccccc1)N1CCCC(c2ncn3cnc4[nH]ccc4c23)C1` (stereo not shown) [Example #4, Benzyl 3-(7H-imidazo[1,5-c]pyrrolo[3,2-e]pyrimidin-1-yl)piperidine-1-carboxylate] displayed an IC50 of 1 to 10 µM. Same read-out and setting: then `N#CC1(C(=O)N2CCCC(c3nnn4cnc5[nH]ccc5c34)C2)CC1` (racemic) [Examples #5 and #6, Step E, 1-(3-(7H-Pyrrolo[3,2-e][1,2,3]triazolo[1,5-c]pyrimidin-1-yl)piperidine-1-carbonyl)cyclopropanecarbonitrile], with 1 to 10 µM; and `c1cc2c(ncn3nnc(C4CCCCC4)c23)[nH]1` [Example #2, 1-Cyclohexyl-7H-pyrrolo[3,2-e][1,2,3]triazolo[1,5-c]pyrimidine], with 1 to 10 µM.

A further assay concerns the target T2, Syk (Homo sapiens, UniProt P43405).
T2 construct: Syk catalytic domain (aa356-635, purified in-house at the Abbott Bioresearch Center); His tag (C); made in house; host or cells: SF9 insect cells
Briefly: In vitro Syk kinase activity measured by trFRET. The assay is classed as biochemical. The note with it: Syk catalytic domain aa356-635, 0.001 mM ATP. On the procedure:
In Vitro Syk Kinase Activity Measured by Time-Resolved Fluorescence Resonance Energy Transfer (trFRET)
0.3 nM Syk catalytic domain (aa356-635, purified in-house at the Abbott Bioresearch Center) was mixed with 0.1 μM peptide substrate (biotin-TYR1, Sequence: Biotin-(Ahx)-[…]-COOH) at varying concentrations of inhibitor in reaction buffer: 50 mM MOPSO pH 6.5, 10 mM MgCl2, 2 mM MnCl2, 2.5 mM DTT, 0.01% BSA, 0.1 mM Na3VO4 and 0.001 mM ATP. After about 60 min incubation at rt, the reaction was quenched by addition of EDTA (final concentration: 100 mM) and developed by addition of revelation reagents (final approximate concentrations: 30 mM HEPES pH 7.0, 0.06% BSA, 0.006% Tween-20, 0.24 M KF, 90 ng/mL PT66K (europium labeled anti-phosphotyrosine antibody cat #61T66KLB Cisbio, Bedford, Mass.) and 0.6 μg/mL SAXL (Phycolink streptavidin-allophycocyanin acceptor, cat #PJ52S, Prozyme, San Leandro, Calif.). The developed reaction was incubated in the dark either at about 4° C. for about 14 h or for about 60 min at rt, then read via a time-resolved fluorescence detector (Rubystar, BMG) using a 337 nm laser for excitation and emission wavelength of 665 nm. Within the linear range of the assay, the observed signal at 665 nm is directly related to phosphorylated product and used to calculate the IC50 values.
Compound `c1cc(-c2cc3c(ncn4ccnc34)[nH]2)ccn1` [Example #12, 8-(Pyridin-4-yl)-7H-imidazo[1,2-c]pyrrolo[3,2-e]pyrimidine] had a half-maximal inhibitory concentration (IC50) of 1 to 10 µM. Same read-out and setting: under `CC(=O)N1CCCC(c2nc(-c3ccc(C(C)C)cc3)n3cnc4[nH]ccc4c23)C1` (stereo not shown) [Example #13, 1-(3-(3-(4-Isopropylphenyl)-7H-imidazo[1,5-c]pyrrolo[3,2-e]pyrimidin-1-yl)piperidin-1-yl)ethanone] stands 1 to 10 µM; under `c1cc2c(ncn3cnc(C4CCCCC4)c23)[nH]1` [Example #1, 1-Cyclohexyl-7H-imidazo[1,5-c]pyrrolo[3,2-e]pyrimidine], 1 to 10 µM. On the same count and under the same terms, under `CS(=O)(=O)c1ccc(-c2nnc3c4cc[nH]c4ncn23)cc1` [Example #9, 3-(4-(Methylsulfonyl)phenyl)-7H-pyrrolo[3,2-e][1,2,4]triazolo[4,3-c]pyrimidine] stands greater than 10 µM; under `c1cncc(-c2cn3cnc4[nH]ccc4c3n2)c1` [Example #11, 2-(Pyridin-3-yl)-7H-imidazo[1,2-c]pyrrolo[3,2-e]pyrimidine], 1 to 10 µM. On the same count and under the same terms, then `CCCNC(=O)c1ccc(Nc2nc3[nH]ccc3c3nccn23)cc1` [Example #7, 4-(7H-Imidazo[1,2-c]pyrrolo[3,2-e]pyrimidin-5-ylamino)-N-propylbenzamide], with greater than 10 µM; and `CC(C)(O)c1ccc(-c2cnc3c4cc[nH]c4ncn23)cc1` [Example #10, 2-(4-(7H-Imidazo[1,2-c]pyrrolo[3,2-e]pyrimidin-3-yl)phenyl)propan-2-ol], with 0.1 to 1 µM. Turning to `c1cc2c(ncn3nnc(C4CCCCC4)c23)[nH]1` [Example #2, 1-Cyclohexyl-7H-pyrrolo[3,2-e][1,2,3]triazolo[1,5-c]pyrimidine], the half-maximal inhibitory concentration (IC50) is greater than 10 µM. As to `COc1ccc(-c2nnc3c4cc[nH]c4ncn23)cc1` [Example #8, 3-(4-Methoxyphenyl)-7H-pyrrolo[3,2-e][1,2,4]triazolo[4,3-c]pyrimidine], the IC50 is greater than 10 µM. Take `Brc1cnc2c3cc[nH]c3ncn12` [Example #10, Step D, 3-bromo-7H-imidazo[1,2-c]pyrrolo[3,2-e]pyrimidine]: the IC50 was greater than 10 µM.

The values above are taken from US20120330012A1, “Novel Tricyclic Compounds” (ABBOTT LABORATORIES, priority 2011, published 2012).
